In patent publication US20250066290A1, “DHODH INHIBITORS CONTAINING A CARBOXYLIC ACID BIOISOSTERE” (IMMUNIC AG, priority 2021, published 2025):
Read-outs that look alike come from different tables or passages of the source.

Tests used:
SARS-CoV-2 = SARS-CoV-2 viral replication (YFP) assay; type: cell-based; conditions: Severe acute respiratory syndrome coronavirus 2, read-out: EC50 range
[1] = biological target: N-terminally truncated recombinant hDHODH enzyme (Homo sapiens, UniProt Q02127); experiment: biochemical; type: biochemical
Procedure: Briefly, the hDHODH concentration was adjusted in a way that an average slope of approximately 0.2 AU/min served as the positive control (e.g. without inhibitor). The standard assay mixture contained 60 μM 2,6-dichloroindophenol, 50 μM decylubiquinone and 100 μM dihydroorotate. The hDHODH enzyme with or without at least six different concentrations of the compounds was added and measurements were performed in 50 mM TrisHCl, 150 mM KCl and 0.1% Triton X-100 at pH 8.0 and at 30° C. The reaction was started by adding dihydroorotate and measuring the absorption at 600 nm for 2 min. For the determination of the IC50 values, each data point was recorded in triplicate. […].

[2] = human DHODH assay, read-out: IC50 range

N-terminally truncated recombinant hDHODH enzyme, sequence (Q02127 whole entry, looked up, the tested form may be a part): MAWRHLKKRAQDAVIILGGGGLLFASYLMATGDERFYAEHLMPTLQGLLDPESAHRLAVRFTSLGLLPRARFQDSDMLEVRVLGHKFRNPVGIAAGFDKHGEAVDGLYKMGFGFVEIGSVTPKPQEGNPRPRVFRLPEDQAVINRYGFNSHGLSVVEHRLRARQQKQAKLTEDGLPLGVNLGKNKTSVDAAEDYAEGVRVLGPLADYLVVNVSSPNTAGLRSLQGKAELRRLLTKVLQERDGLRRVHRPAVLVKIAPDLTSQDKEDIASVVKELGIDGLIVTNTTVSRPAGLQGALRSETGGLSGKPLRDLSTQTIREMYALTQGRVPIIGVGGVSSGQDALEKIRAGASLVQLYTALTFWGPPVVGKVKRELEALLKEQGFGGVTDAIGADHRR

`[2H]C([2H])([2H])Oc1cccc(-c2cc(F)c(NC(=O)C3=C(/C(N)=N/O)CCC3)c(F)c2)c1` [Example 3-1, (Z)—N-(3,5-Difluoro-3′-(methoxy-d3)-[1,1′-biphenyl]-4-yl)-2-(N-hydroxycarbamimid-oyl)cyclopent-1-ene-1-carboxamide] was tested, and the EC50 (SARS-CoV-2) was less than 10 µM and the IC50 [1] was greater than 10 µM.
`[2H]C([2H])([2H])Oc1cccc(-c2cc(F)c(NC(=O)C3=C(c4noc(=O)[nH]4)CCC3)c(F)c2)c1` [Example 3-2, N-(3,5-Difluoro-3′-(methoxy-d3)-[1,1′-biphenyl]-4-yl)-2-(5-oxo-4,5-dihydro-1,2,4-oxadiazol-3-yl)cyclopent-1-ene-1-carboxamide] showed an EC50 (SARS-CoV-2) of less than 10 µM and an IC50 [1, 2] greater than 10 µM.
`[2H]C([2H])([2H])Oc1cccc(-c2c(F)c(F)c(NC(=O)C3=C(c4nn[nH]n4)COC3)c(F)c2F)c1` [Example 3/1] was tested, and the EC50 (SARS-CoV-2) was 25 to 50 µM and the IC50 [1] was 1 to 10 µM.
For `[2H]C([2H])([2H])Oc1cccc(-c2cc(F)c(NC(=O)C3=C(C(=O)NOCCO)CCC3)c(F)c2)c1` [Example 4/1], the EC50 (SARS-CoV-2) was less than 10 µM and the IC50 [1] was 1 to 10 µM.
Work on `[2H]C([2H])([2H])Oc1cccc(-c2cc(F)c(NC(=O)C3=C(C(=O)NOCC#N)CCC3)c(F)c2)c1` [Example 4/3] yielded an EC50 (SARS-CoV-2) of 10 to 25 µM and an IC50 [1] of 1 to 10 µM.
With `[2H]C([2H])([2H])Oc1cccc(-c2cc(F)c(NC(=O)C3=C(C(=O)NOC)COC3)c(F)c2)c1` [Example 5, N^3-(3,5-Difluoro-3′-(methoxy-d3)-[1,1′-biphenyl]-4-yl)-N^4-methoxy-2,5-dihydrofuran-3,4-dicarboxamide] the EC50 (SARS-CoV-2) was less than 10 µM and the IC50 [1] was 0.1 to 1 µM.
Compound `[2H]c1c([2H])c([2H])c(-c2c(F)c(F)c(NC(=O)C3=C(C(=O)NOC([2H])([2H])[2H])COC3)c(F)c2F)c([2H])c1[2H]` [Example 5/1] has an EC50 (SARS-CoV-2) of less than 1 µM and an IC50 [1, 2] of less than 0.1 µM.
`[2H]C([2H])([2H])Oc1cccc(-c2c(F)c(F)c(NC(=O)C3=C(C(=O)NOC)CSC3)c(F)c2F)c1` [Example 6/1] was tested, and the EC50 (SARS-CoV-2) was less than 1 µM and the IC50 [1, 2] was less than 0.1 µM.
For `[2H]C([2H])([2H])Oc1cccc(-c2cnc(NC(=O)C3=C(C(=O)NOC)CCC3)c(F)c2)c1` [Example 8, N^1-(3-Fluoro-5-(3-(methoxy-d3)phenyl)pyridin-2-yl)-N^2-methoxycyclopent-1-ene-1,2-dicarboxamide], the EC50 (SARS-CoV-2) was greater than 50 µM and the IC50 [1] was 1 to 10 µM.
`[2H]C([2H])([2H])Oc1cccc(-c2ccc(NC(=O)C3=C(C(=O)NOC)CCC3)c3c2CCC3)c1` [Example 8/1] was tested, and the EC50 (SARS-CoV-2) was less than 10 µM and the IC50 [1, 2] was greater than 10 µM.
In the case of `[2H]C([2H])([2H])Oc1cccc(-c2cc(F)c(NC(=O)c3sccc3C(=O)NOC)c(F)c2)c1` [Example 10, N^2-(3,5-Difluoro-3′-(methoxy-d3)-[1,1′-biphenyl]-4-yl)-N^3-methoxythiophene-2,3-dicarboxamide], the EC50 (SARS-CoV-2) is reported as less than 1 µM and the IC50 [1] is reported as less than 0.1 µM.
`[2H]C([2H])([2H])Oc1cccc(-c2c(F)c(F)c(NC(=O)c3ccoc3C(=O)NOC)c(F)c2F)c1` [Example 10/1] showed an EC50 (SARS-CoV-2) of less than 1 µM and an IC50 [1, 2] of less than 0.1 µM.
`[2H]C([2H])([2H])Oc1cccc(-c2cc(F)c(N(C)C(=O)C3=C(C(=O)NOC)CCC3)c(F)c2)c1` [Example 13, N1-(3,5-Difluoro-3′-(methoxy-d3)-[1,1′-biphenyl]-4-yl)-N2-methoxy-N1-methylcyclopent-1-ene-1,2-dicarboxamide] was tested, and the EC50 (SARS-CoV-2) was 10 to 25 µM and the IC50 [1] was greater than 10 µM.
Work on `[2H]C([2H])([2H])Oc1cccc(-c2c(F)c(F)c(NC(=O)c3cocc3C(=O)NOC)c(F)c2F)c1` [Example 16/1] yielded an EC50 (SARS-CoV-2) of less than 1 µM and an IC50 [1, 2] of less than 0.1 µM.
`[2H]C([2H])([2H])Oc1cccc(-c2c(F)c(F)c(NC(=O)c3cc(C)sc3C(=O)NOC)c(F)c2F)c1` [Example 17-1, N2-Methoxy-5-methyl-N3-(2,3,5,6-tetrafluoro-3′-(methoxy-d3)-[1,1′-biphenyl]-4-yl)thiophene-2,3-dicarboxamide] showed an EC50 (SARS-CoV-2) of less than 1 µM and an IC50 [1] of less than 0.1 µM.
